{"source": "patent US20210386367A1", "about": "“DEVICES AND SYSTEMS FOR GASTROINTESTINAL MICROBIOME DETECTION AND MANIPULATION” (Progenity, Inc., priority 2018, published 2021)", "key": {"[1]": {"test_system": "Bacteroides non fragilis clinical isolates", "assay": "MIC distribution against clinical isolates", "assay_type": "cell-based", "details": "29 Bacteroides non-fragilis isolates"}, "[2]": {"test_system": "Prevotella spp. clinical isolates", "assay": "MIC distribution against clinical isolates", "assay_type": "cell-based"}, "[3]": {"test_system": "Prevotella spp.", "assay": "Agar dilution MIC, 30 clinical isolates", "assay_type": "cell-based"}, "[4]": {"test_system": "Veillonella spp.", "assay": "Agar dilution MIC, 30 clinical isolates", "assay_type": "cell-based"}, "[5]": {"test_system": "E. coli ATCC 25922", "assay": "Time-kill assay", "assay_type": "cell-based, Escherichia coli", "details": "2×, 4×, 8× MIC; 2, 6, 24 hr"}, "[6]": {"test_system": "S. pneumoniae ATCC 49619", "assay": "Time-kill assay", "assay_type": "cell-based, Streptococcus pneumoniae", "details": "2×, 4×, 8× MIC; 2, 6, 24 hr"}, "[7]": {"test_system": "S. pyogenes ATCC 49399", "assay": "Time-kill assay", "assay_type": "cell-based, Streptococcus pyogenes", "details": "2×, 4×, 8× MIC; 2, 6, 24 hr"}, "[8]": {"test_system": "E. coli (ATCC 25922, ATCC 35218, MMX 1312)", "assay": "Agar dilution MIC (spontaneous mutation study; strain in conditions)", "assay_type": "cell-based, Escherichia coli", "details": "Escherichia coli"}, "[9]": {"test_system": "E. coli (ATCC 25922, ATCC 35218, MMX 1312)", "assay": "Spontaneous mutation frequency assay", "assay_type": "cell-based, Escherichia coli", "experimental": "Initial values of the MIC were determined by agar dilution in accordance with guidelines from the Clinical and Laboratory Standards Institute (CLSI; (1) “Methods for Dilution Antimicrobial Susceptibility Tests for Bacteria That Grow Aerobically; Approved Standard; 11th ed.,” CLSI standard M07, 2018; (2) “Methods for Antimicrobial Susceptibility Testing of Anaerobic Bacteria; Approved Standard—Eighth Edition,” CLSI document M11-A8, 2012.).\nThe agar plates were prepared by mixing a ratio of 1.0 mL of concentrated drug to 49.0 mL of the appropriate molten (47° C.) agar; the drug-supplemented agar was mixed, poured into 15-by-150 mm petri dishes and allowed to solidify and dry at room temperature prior to inoculation. […] Each plate was allowed to cool at room temperature for at least 1 hr.\nThe isolates were streaked onto the appropriate agar medium and incubated for 20 hr (aerobes) or 48 hr (Bacteroides under anaerobic conditions). Using a sterile swab, several well-isolated colonies were removed and resuspended in sterile saline at a heavy cell density. Each plate was inoculated with 0.5 mL of the cell suspension (each test concentration was inoculated in duplicate). The target inoculum for each spontaneous mutation plate was 10^9-10 CFU. In addition, a portion of the inoculum from each isolate was enumerated by making dilutions, spreading on agar and counting colonies.\nOnce the inoculum was absorbed into the agar, the plates were incubated at 35° C. Aerobes were examined at 24 and 48 hr, and resulting colonies were counted. Bacteroides were incubated anaerobically for 48-72 hr in the anaerobe chamber and colonies were counted.\nColony counts from plates used to enumerate the initial inoculum density and from the resulting spontaneous mutation frequency test plates were determined. The inoculum size was calculated as CFU inoculated per plate. The spontaneous mutation frequency was calculated using the counts from duplicate spontaneous mutation assay test plates as follows:\nIf there were no colonies on the antibiotic selection plates, the spontaneous mutation frequency was reported as less than the frequency observed with one colony to indicate that the spontaneous mutation frequency was less than the limit of detection (one CFU). […] The mutation prevention concentration (MPC) was reported as the lowest concentration for which no mutants were selected."}, "[10]": {"test_system": "Streptococcus spp. spontaneous mutants", "details": "S. pneumoniae ATCC 49619; CLSI QC range shown in parentheses; cited from earlier work"}, "[11]": {"test_system": "Enterobacteriaceae", "details": "cited from earlier work"}, "[12]": {"details": "in vivo, 50 mg/kg, cited from earlier work"}, "[13]": {"details": "MIC 0.5 μg/mL, 30 Prevotella spp. isolates"}, "[14]": {"details": "MIC 4 μg/mL, 30 Prevotella spp. isolates"}, "[15]": {"details": "MIC 8 μg/mL, 30 Prevotella spp. isolates"}, "[16]": {"details": "MIC 16 μg/mL, 30 Prevotella spp. isolates"}, "[17]": {"details": "MIC 32 μg/mL, 30 Prevotella spp. isolates"}, "[18]": {"details": "MIC 64 μg/mL, 30 Prevotella spp. isolates"}, "[19]": {"details": "30 Prevotella spp. clinical isolates"}, "[20]": {"details": "30 Veillonella spp. clinical isolates"}}, "note": "Like-named read-outs stand apart in the source and are kept apart here."}
{"smiles": "CO/N=C(\\C(=O)N[C@@H]1C(=O)N2C(C(=O)O)=C(CSc3nc(=O)c(=O)[nH]n3C)CS[C@H]12)c1csc(N)n1", "note": "[ceftriaxone]", "values": [{"measurement": "Cumulative percentage of isolates inhibited at MIC", "setting": "[1]; MIC 1 μg/mL", "result": 3.4, "unit": "%"}, {"measurement": "Number of test isolates at MIC", "setting": "[1]; MIC 1 μg/mL", "result": 1}, {"measurement": "Cumulative percentage of isolates inhibited at MIC", "setting": "[1]; MIC 2 μg/mL", "result": 6.9, "unit": "%"}, {"measurement": "Number of test isolates at MIC", "setting": "[1]; MIC 2 μg/mL", "result": 1}, {"measurement": "Cumulative percentage of isolates inhibited at MIC", "setting": "[1]; MIC 4 μg/mL", "result": 13.8, "unit": "%"}, {"measurement": "Number of test isolates at MIC", "setting": "[1]; MIC 4 μg/mL", "result": 2}, {"measurement": "Cumulative percentage of isolates inhibited at MIC", "setting": "[1]; MIC 16 μg/mL", "result": 24.1, "unit": "%"}, {"measurement": "Number of test isolates at MIC", "setting": "[1]; MIC 16 μg/mL", "result": 3}, {"measurement": "Cumulative percentage of isolates inhibited at MIC", "setting": "[1]; MIC 32 μg/mL", "result": 27.6, "unit": "%"}, {"measurement": "Number of test isolates at MIC", "setting": "[1]; MIC 32 μg/mL", "result": 1}, {"measurement": "Cumulative percentage of isolates inhibited at MIC", "setting": "[1]; MIC 64 μg/mL", "result": 34.5, "unit": "%"}, {"measurement": "Number of test isolates at MIC", "setting": "[1]; MIC 64 μg/mL", "result": 2}, {"measurement": "Cumulative percentage of isolates inhibited at MIC", "setting": "[2]", "result": 100.0, "unit": "%"}, {"measurement": "Number of test isolates at MIC", "setting": "[2]", "result": 3}, {"measurement": "Cumulative percentage of isolates inhibited at MIC", "setting": "[2]; [13]", "result": 20.0, "unit": "%"}, {"measurement": "Number of test isolates at MIC", "setting": "[2]; [13]", "result": 1}, {"measurement": "Cumulative percentage of isolates inhibited at MIC", "setting": "[2]; [14]", "result": 33.3, "unit": "%"}, {"measurement": "Number of test isolates at MIC", "setting": "[2]; [14]", "result": 4}, {"measurement": "Cumulative percentage of isolates inhibited at MIC", "setting": "[2]; [15]", "result": 36.7, "unit": "%"}, {"measurement": "Number of test isolates at MIC", "setting": "[2]; [15]", "result": 1}, {"measurement": "Cumulative percentage of isolates inhibited at MIC", "setting": "[2]; [16]", "result": 46.7, "unit": "%"}, {"measurement": "Number of test isolates at MIC", "setting": "[2]; [16]", "result": 3}, {"measurement": "Cumulative percentage of isolates inhibited at MIC", "setting": "[2]; [17]", "result": 66.7, "unit": "%"}, {"measurement": "Number of test isolates at MIC", "setting": "[2]; [17]", "result": 6}, {"measurement": "Cumulative percentage of isolates inhibited at MIC", "setting": "[2]; [18]", "result": 90.0, "unit": "%"}, {"measurement": "Number of test isolates at MIC", "setting": "[2]; [18]", "result": 7}, {"measurement": "MIC range", "setting": "[3]", "result": "0.12 to 128", "unit": "µg/mL"}, {"measurement": "isolates resistant", "setting": "[3]", "result": 33, "unit": "%"}, {"measurement": "isolates with intermediate resistance", "setting": "[3]", "result": 20, "unit": "%"}, {"measurement": "% I", "setting": "[3]; [19]", "result": 20, "unit": "%"}, {"measurement": "% R", "setting": "[3]; [19]", "result": 33, "unit": "%"}, {"measurement": "% S", "setting": "[3]; [19]", "result": 47, "unit": "%"}, {"measurement": "MIC50", "setting": "[3]; [19]", "result": 32, "unit": "µg/mL"}, {"measurement": "MIC90", "setting": "[3]; [19]", "result": 64, "unit": "µg/mL"}, {"measurement": "MIC range", "setting": "[3]; [19]", "result": "0.12 to 128", "unit": "µg/mL"}, {"measurement": "MIC50", "setting": "[3]; Prevotella, read-out: MIC50", "result": 32, "unit": "µg/mL"}, {"measurement": "MIC90", "setting": "[3]; Prevotella, read-out: MIC90", "result": 64, "unit": "µg/mL"}, {"measurement": "Mode", "setting": "[3]; modal MIC, 30 Prevotella spp. clinical isolates", "result": 64, "unit": "µg/mL"}, {"measurement": "isolates resistant", "setting": "[4]", "result": 3, "unit": "%"}, {"measurement": "isolates with intermediate resistance", "setting": "[4]", "result": 10, "unit": "%"}, {"measurement": "% I", "setting": "[4]; [20]", "result": 10, "unit": "%"}, {"measurement": "% R", "setting": "[4]; [20]", "result": 3, "unit": "%"}, {"measurement": "% S", "setting": "[4]; [20]", "result": 87, "unit": "%"}, {"measurement": "MIC50", "setting": "[4]; [20]", "result": 16, "unit": "µg/mL"}, {"measurement": "MIC90", "setting": "[4]; [20]", "result": 32, "unit": "µg/mL"}, {"measurement": "MIC50", "setting": "[4]; Veillonella, read-out: MIC50", "result": 16, "unit": "µg/mL"}, {"measurement": "MIC90", "setting": "[4]; Veillonella, read-out: MIC90", "result": 32, "unit": "µg/mL"}, {"measurement": "Mode", "setting": "[4]; modal MIC, 30 Veillonella spp. clinical isolates", "result": 16, "unit": "µg/mL"}, {"measurement": "time-kill kinetics outcome (bactericidal = ≥3 log reduction in CFU per mL)", "setting": "[5]", "result": "bactericidal at 8×MIC at 24 hr"}, {"measurement": "time-kill kinetics outcome (bactericidal = ≥3 log reduction in CFU per mL)", "setting": "[6]", "result": "all three drug concentrations tested demonstrated bactericidal effects at 24 hr"}, {"measurement": "time-kill kinetics outcome (bactericidal = ≥3 log reduction in CFU per mL)", "setting": "[7]", "result": "bactericidal effect at 4× and 8×MIC at 24 hr"}, {"measurement": "MIC", "setting": "[8]; read-out: Agar MIC, E. coli ATCC 25922", "result": 0.06, "unit": "µg/mL"}, {"measurement": "MIC", "setting": "[8]; read-out: Agar MIC, E. coli ATCC 35218", "result": 0.03, "unit": "µg/mL"}, {"measurement": "MIC", "setting": "[8]; read-out: Agar MIC, E. coli MMX 1312", "result": 4, "unit": "µg/mL"}, {"measurement": "MIC", "setting": "[8]; read-out: MIC value (agar dilution), E. coli MMX 1312", "result": 4, "unit": "µg/mL"}, {"measurement": "MIC", "setting": "[8]; read-out: MIC values (agar dilution), E. coli excluding E. coli MMX 1312 (stated jointly with Streptococcus spp.)", "result": "0.03 to 0.06", "unit": "µg/mL"}, {"measurement": "mutation rate", "setting": "[9]; E. coli MMX 1312", "result": "indeterminate"}, {"measurement": "Spontaneous Mutation Frequency", "setting": "[9]; selection at 4× and 8× MIC, meropenem/ceftriaxone: isolates other than MMX 1312", "result": "≤ 7.41×10^−9"}, {"measurement": "MIC, CLSI QC range", "setting": "[10]", "result": "(0.03-0.12)^1 μg/mL"}, {"measurement": "% S", "setting": "[11]", "result": 87.5, "unit": "%"}, {"measurement": "MIC50", "setting": "[11]", "result": "≤1", "unit": "µg/mL"}, {"measurement": "MIC90", "setting": "[11]", "result": 8, "unit": "µg/mL"}, {"measurement": "Rat oral exposure lower than iv", "setting": "[12]", "result": "mg/kg (200-fold"}, {"measurement": "Rat oral exposure (Dose)", "setting": "[12]; po", "result": 0.9, "unit": "μg*hr/mL at 50"}]}
